From ChEMBL document CHEMBL1201862, “PubChem BioAssay data set” (2004)
Several values for one entry are separate records, joined by “and”; a condition that tells them apart may be missing. Identical values can stand only once.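 Protocol summary: plate cells (96-well), add compound at 5 concentrations, incubate 48 h, interpolate endpoints linearly. At the GI50, growth is halved.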 Activity calls are given as the source filed them. Rule as the data show it: active = GI50 up to about 1.1 µM and inactive = higher.

Columns and labels:
Test in all cases: inhibition of tumour cell growth, NCI panel, 48 h
[1] = tested on: 786-0
[2] = tested on: A498
[3] = tested on: ACHN
[4] = tested on: HOP-62
[5] = tested on: HOP-92
[6] = tested on: IGROV-1
[7] = tested on: LOX IMVI
[8] = tested on: M14
[9] = tested on: NCI-H226
[10] = tested on: OVCAR-5
[11] = tested on: RXF 393
[12] = tested on: SF-295
[13] = tested on: SF-539
[14] = tested on: SNB-75
[15] = tested on: SR
[16] = tested on: SW-620
[17] = tested on: UACC-62
[18] = tested on: UO-31
[19] = tested on: PC-3

Measured: GI50

COc1ccc(-c2cc(-c3ccco3)c(C#N)c(=O)n2C2OC(OC(=O)c3ccccc3)C(OC(=O)c3ccccc3)C2OC(=O)c2ccccc2)cc1 (stereo unspecified)
inactive: [1] > 100 µM | [2] > 100 µM | [3] > 100 µM | [4] 52.6 µM | [5] 23.9 µM | [6] > 100 µM | [7] > 100 µM | [8] > 100 µM | [9] > 100 µM | [10] > 100 µM | [11] 14.4 µM | [12] 50.2 µM | [13] > 100 µM | [14] 72.1 µM | [15] > 100 µM | [16] > 100 µM | [17] > 10 µM | [18] 46 µM

COc1cc2c(cc1OC)[C@H]1C(COC(=O)c3ccccc3)CS/C(=N/c3ccccc3)N1CC2 (stereo partly specified)
inactive: [1] > 100 µM | [2] 48.9 µM | [3] > 100 µM | [4] > 100 µM | [5] 8.17 µM | [6] > 100 µM | [7] 92.9 µM | [8] > 100 µM | [9] 36.3 µM | [10] 3.54 µM | [11] 13.3 µM | [12] > 100 µM | [13] > 100 µM | [14] 27.7 µM | [15] 5.71 µM | [16] > 100 µM | [17] > 100 µM | [18] 24.5 µM

Cn1ccnc1Oc1ccc(Cl)cc1
inactive: [1] 11.5 µM | [2] 16.9 µM | [3] 12.8 µM | [4] 26.2 µM | [5] 11 µM | [7] 13.2 µM | [8] 13.7 µM | [9] 13 µM | [10] 15.6 µM | [19] 14.3 µM | [11] 16.9 µM | [13] 11.9 µM | [14] 14.7 µM | [16] 13 µM | [17] 11.1 µM | [18] 11.7 µM

COC(=O)C(CCCCCCCC(C(=O)OC)C1=Nc2nnc(N)n2C1=O)C1=Nc2nnc(N)n2C1=O (stereo unspecified)
inactive: [1] > 100 µM | [2] > 100 µM | [3] > 100 µM | [4] > 100 µM | [5] 65.8 µM | [6] > 100 µM | [7] > 100 µM | [8] > 100 µM | [9] > 100 µM | [10] > 100 µM | [11] 55.8 µM | [12] 61.9 µM | [13] 84.3 µM | [14] 48.3 µM | [15] > 100 µM | [16] > 100 µM | [17] > 100 µM | [18] > 100 µM

COc1ccc(C(=O)O/N=C2/CCCCC2CN(C)C)cc1 (stereo unspecified)
inactive: [1] > 100 µM | [2] > 100 µM | [3] > 100 µM | [4] > 100 µM | [5] > 100 µM | [6] > 100 µM | [7] > 100 µM | [8] > 100 µM | [9] > 100 µM | [10] > 100 µM | [11] > 100 µM | [12] > 100 µM | [13] > 100 µM | [14] > 100 µM | [15] > 100 µM | [16] > 100 µM | [17] > 100 µM | [18] > 100 µM

COc1ccccc1/C=N/C12CC3CC(CC(C3)C1)C2
inactive: [1] > 100 µM | [2] > 100 µM | [3] > 100 µM | [4] > 100 µM | [5] > 100 µM | [7] > 100 µM | [8] > 100 µM | [9] > 10 µM | [10] > 100 µM | [11] > 100 µM | [12] > 100 µM | [13] > 100 µM | [14] 86.9 µM | [15] > 100 µM | [16] > 100 µM | [17] > 100 µM | [18] > 100 µM

COc1ccc([S+]([O-])Cc2cc(OC)c(OC)c(OC)c2)cc1 (stereo unspecified)
inactive: [1] > 100 µM | [3] > 100 µM | [4] 45.5 µM | [6] > 100 µM | [7] 91.6 µM | [8] 35.2 µM | [9] > 100 µM | [10] 42.9 µM | [19] > 100 µM | [11] 29.2 µM | [12] 47.3 µM | [13] 56.5 µM | [14] 45.4 µM | [15] 37.8 µM | [16] 30.3 µM | [17] 42.4 µM | [18] > 100 µM

O=c1ncccn1[C@@H]1O[C@H](CO)[C@@H](O)[C@@H]1F
inactive: [1] > 100 µM | [2] > 100 µM | [3] > 100 µM | [4] > 68.5 µM | [5] > 100 µM | [6] > 100 µM | [7] > 100 µM and > 59.2 µM | [8] > 100 µM | [9] > 100 µM | [10] > 100 µM | [11] > 100 µM | [12] > 100 µM | [14] > 100 µM and > 50.9 µM | [15] > 68.2 µM
